Laboratory results taken from patent US8026278B2, “Inhibitors of pyruvate kinase as therapeutic agents for cancer” (priority 2005, dated 2011).
Where a name gives a salt, the structure may show the parent alone. Read-outs that look alike come from different tables or passages of the source.

Tests used:
[1] = tested on: SF268 (glioma) cancer cell line; assay: MTT assay, inhibition of cell proliferation, SF268; assay type: cell-based; conditions: SF268, 72 hours
Procedure: (§1) The compounds of the invention were tested for their inhibition potential of cell proliferation. MCF7 (breast) and SF268 (glioma) cancer cell lines were incubated with different concentrations of the compounds and their viability was assessed using an MTT (3-(4,5-dimethylthiazol-2-yl)-2,5-diphenyltetrazolium bromide) assay. The MTT assay is well known in the art (see for example Slater et al., Biochim. Biophys. Acta 77 (1963) 383). The cells were incubated with a given inhibitor for 72 hours and assayed.

[2] = tested on: MCF7 (breast) cancer cell line; assay: MTT assay, inhibition of cell proliferation, MCF7; assay type: cell-based; conditions: MCF7, 72 hours
Procedure: as §1

[3] = target: T1, Pyruvate kinase isolated from rabbit muscle (Oryctolagus cuniculus, UniProt P11974); assay: Inhibition of pyruvate kinase (indirect assay quantifying ADP production); assay type: biochemical
T1 construct: Pyruvate kinase isolated from rabbit muscle; purchased Sigma-Aldrich; host or cells: rabbit muscle (tissue-derived enzyme)
Procedure: The compounds E-3-chlorophosphoenolpyruvate ditriethyl-ammonium salt (ECPDAT), Z-3-chlorophosphoenolpyruvate tritriethyl-ammonium salt (CPTP), phosphoenol-3-bromo-pyruvic acid mono-cyclohexyl ammonium salt (PBPA), 2-bromooxoethylphosphonic acid mono-cyclohexyl-ammonium salt (BOEPA) and 3-bromopyruvic acid (BrPyA) were tested for their efficiency at inhibiting pyruvate kinase. Pyruvate kinase isolated from rabbit muscle was purchased from Sigma-Aldrich. Pyruvate kinase was assayed indirectly by quantifying ADP production formed in the reaction ATP+pyruvate to ADP+phosphoenolpyruvate. Inhibitors were added to the reaction mixture immediately before the reaction was started by the addition of ATP.

T1 sequence (P11974 whole entry): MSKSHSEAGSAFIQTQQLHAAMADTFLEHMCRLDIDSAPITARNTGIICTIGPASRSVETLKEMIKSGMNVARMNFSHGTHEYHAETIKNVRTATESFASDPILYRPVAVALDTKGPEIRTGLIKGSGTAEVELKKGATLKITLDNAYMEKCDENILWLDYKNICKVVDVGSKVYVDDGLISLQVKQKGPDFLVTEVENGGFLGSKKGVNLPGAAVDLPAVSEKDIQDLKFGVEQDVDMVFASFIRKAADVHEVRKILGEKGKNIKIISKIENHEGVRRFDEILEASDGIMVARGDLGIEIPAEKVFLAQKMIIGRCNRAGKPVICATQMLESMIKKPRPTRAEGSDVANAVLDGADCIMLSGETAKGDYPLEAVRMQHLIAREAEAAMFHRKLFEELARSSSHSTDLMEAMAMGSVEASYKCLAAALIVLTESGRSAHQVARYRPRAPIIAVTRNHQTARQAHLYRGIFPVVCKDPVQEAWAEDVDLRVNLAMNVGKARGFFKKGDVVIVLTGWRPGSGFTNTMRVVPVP

O=C(CBr)P(=O)(O)O [BOEPA]
Inhibition of cell proliferation [1]: inhibited cell proliferation
% (A-Blank relative to control) ([1]; 10 uM): 101.2806%
A-Blank (Average-Blank) O.D. at 570 nm ([1]; 10 uM): 0.692 O.D.
Average O.D. reading at 570 nm ([1]; 10 uM): 0.7792 O.D.
% (A-Blank relative to control) ([1]; 25 uM): 99.49%
A-Blank (Average-Blank) O.D. at 570 nm ([1]; 25 uM): 0.68 O.D.
Average O.D. reading at 570 nm ([1]; 25 uM): 0.767 O.D.
% (A-Blank relative to control) ([1]; 50 uM): 100.8%
A-Blank (Average-Blank) O.D. at 570 nm ([1]; 50 uM): 0.689 O.D.
Average O.D. reading at 570 nm ([1]; 50 uM): 0.776 O.D.
% (A-Blank relative to control) ([1]; 75 uM): 96.52%
A-Blank (Average-Blank) O.D. at 570 nm ([1]; 75 uM): 0.66 O.D.
Average O.D. reading at 570 nm ([1]; 75 uM): 0.747 O.D.
% (A-Blank relative to control) ([1]; 100 uM): 90.45%
A-Blank (Average-Blank) O.D. at 570 nm ([1]; 100 uM): 0.618 O.D.
Average O.D. reading at 570 nm ([1]; 100 uM): 0.705 O.D.
% (A-Blank relative to control) ([1]; 200 uM): 53.055%
A-Blank (Average-Blank) O.D. at 570 nm ([1]; 200 uM): 0.3625 O.D.
Average O.D. reading at 570 nm ([1]; 200 uM): 0.4498 O.D.
% (A-Blank relative to control) ([1]; 300 uM): 12.221%
A-Blank (Average-Blank) O.D. at 570 nm ([1]; 300 uM): 0.0835 O.D.
Average O.D. reading at 570 nm ([1]; 300 uM): 0.1708 O.D.
% (A-Blank relative to control) ([1]; 500 uM): 5.196%
A-Blank (Average-Blank) O.D. at 570 nm ([1]; 500 uM): 0.0355 O.D.
Average O.D. reading at 570 nm ([1]; 500 uM): 0.1227 O.D.
Inhibition of cell proliferation [2]: inhibited cell proliferation
% (A-Blank relative to control) ([2]; 10 uM): 93.37%
A-Blank (Average-Blank) O.D. at 570 nm ([2]; 10 uM): 0.7642 O.D.
Average O.D. reading at 570 nm ([2]; 10 uM): 0.8518 O.D.
% (A-Blank relative to control) ([2]; 25 uM): 93.769%
A-Blank (Average-Blank) O.D. at 570 nm ([2]; 25 uM): 0.7675 O.D.
Average O.D. reading at 570 nm ([2]; 25 uM): 0.855 O.D.
% (A-Blank relative to control) ([2]; 50 uM): 91.142%
A-Blank (Average-Blank) O.D. at 570 nm ([2]; 50 uM): 0.746 O.D.
Average O.D. reading at 570 nm ([2]; 50 uM): 0.8335 O.D.
% (A-Blank relative to control) ([2]; 75 uM): 93.28%
A-Blank (Average-Blank) O.D. at 570 nm ([2]; 75 uM): 0.7635 O.D.
Average O.D. reading at 570 nm ([2]; 75 uM): 0.851 O.D.
% (A-Blank relative to control) ([2]; 100 uM): 91.57%
A-Blank (Average-Blank) O.D. at 570 nm ([2]; 100 uM): 0.7495 O.D.
Average O.D. reading at 570 nm ([2]; 100 uM): 0.837 O.D.
% (A-Blank relative to control) ([2]; 200 uM): 89.249%
A-Blank (Average-Blank) O.D. at 570 nm ([2]; 200 uM): 0.7305 O.D.
Average O.D. reading at 570 nm ([2]; 200 uM): 0.818 O.D.
% (A-Blank relative to control) ([2]; 300 uM): 56.2004%
A-Blank (Average-Blank) O.D. at 570 nm ([2]; 300 uM): 0.46 O.D.
Average O.D. reading at 570 nm ([2]; 300 uM): 0.5475 O.D.
% (A-Blank relative to control) ([2]; 500 uM): 36.68%
A-Blank (Average-Blank) O.D. at 570 nm ([2]; 500 uM): 0.3003 O.D.
Average O.D. reading at 570 nm ([2]; 500 uM): 0.3877 O.D.
inhibition at 0.1 µM [3]: 0%
inhibition at 1 µM [3]: 0%
inhibition at 10 µM [3]: 0%

O=C(O)C(=CBr)OP(=O)(O)O [PBPA, phosphoenol-3-bromo-pyruvic acid mono-cyclohexyl ammonium salt]
Inhibition of cell proliferation [1]: inhibited cell proliferation
% (A-Blank relative to control) ([1]; 10 uM): 100.1%
A-Blank (Average-Blank) O.D. at 570 nm ([1]; 10 uM): 0.6935 O.D.
Average O.D. reading at 570 nm ([1]; 10 uM): 0.7798 O.D.
% (A-Blank relative to control) ([1]; 25 uM): 102.02%
A-Blank (Average-Blank) O.D. at 570 nm ([1]; 25 uM): 0.7068 O.D.
Average O.D. reading at 570 nm ([1]; 25 uM): 0.793 O.D.
% (A-Blank relative to control) ([1]; 50 uM): 99.567%
A-Blank (Average-Blank) O.D. at 570 nm ([1]; 50 uM): 0.6898 O.D.
Average O.D. reading at 570 nm ([1]; 50 uM): 0.776 O.D.
% (A-Blank relative to control) ([1]; 75 uM): 100.11%
A-Blank (Average-Blank) O.D. at 570 nm ([1]; 75 uM): 0.6935 O.D.
Average O.D. reading at 570 nm ([1]; 75 uM): 0.7798 O.D.
% (A-Blank relative to control) ([1]; 100 uM): 95.453%
A-Blank (Average-Blank) O.D. at 570 nm ([1]; 100 uM): 0.6613 O.D.
Average O.D. reading at 570 nm ([1]; 100 uM): 0.7475 O.D.
% (A-Blank relative to control) ([1]; 200 uM): 90.978%
A-Blank (Average-Blank) O.D. at 570 nm ([1]; 200 uM): 0.6303 O.D.
Average O.D. reading at 570 nm ([1]; 200 uM): 0.7165 O.D.
% (A-Blank relative to control) ([1]; 300 uM): 79.7546%
A-Blank (Average-Blank) O.D. at 570 nm ([1]; 300 uM): 0.5525 O.D.
Average O.D. reading at 570 nm ([1]; 300 uM): 0.6388 O.D.
% (A-Blank relative to control) ([1]; 500 uM): 74.49%
A-Blank (Average-Blank) O.D. at 570 nm ([1]; 500 uM): 0.516 O.D.
Average O.D. reading at 570 nm ([1]; 500 uM): 0.6022 O.D.
Inhibition of cell proliferation [2]: inhibited cell proliferation
% (A-Blank relative to control) ([2]; 10 uM): 94.23%
A-Blank (Average-Blank) O.D. at 570 nm ([2]; 10 uM): 0.7632 O.D.
Average O.D. reading at 570 nm ([2]; 10 uM): 0.846 O.D.
% (A-Blank relative to control) ([2]; 25 uM): 97.16%
A-Blank (Average-Blank) O.D. at 570 nm ([2]; 25 uM): 0.787 O.D.
Average O.D. reading at 570 nm ([2]; 25 uM): 0.8698 O.D.
% (A-Blank relative to control) ([2]; 50 uM): 97.901%
A-Blank (Average-Blank) O.D. at 570 nm ([2]; 50 uM): 0.793 O.D.
Average O.D. reading at 570 nm ([2]; 50 uM): 0.8758 O.D.
% (A-Blank relative to control) ([2]; 75 uM): 98.827%
A-Blank (Average-Blank) O.D. at 570 nm ([2]; 75 uM): 0.8005 O.D.
Average O.D. reading at 570 nm ([2]; 75 uM): 0.8833 O.D.
% (A-Blank relative to control) ([2]; 100 uM): 95.71%
A-Blank (Average-Blank) O.D. at 570 nm ([2]; 100 uM): 0.7753 O.D.
Average O.D. reading at 570 nm ([2]; 100 uM): 0.858 O.D.
% (A-Blank relative to control) ([2]; 200 uM): 93.333%
A-Blank (Average-Blank) O.D. at 570 nm ([2]; 200 uM): 0.756 O.D.
Average O.D. reading at 570 nm ([2]; 200 uM): 0.8388 O.D.
% (A-Blank relative to control) ([2]; 300 uM): 84.9074%
A-Blank (Average-Blank) O.D. at 570 nm ([2]; 300 uM): 0.6877 O.D.
Average O.D. reading at 570 nm ([2]; 300 uM): 0.7705 O.D.
% (A-Blank relative to control) ([2]; 500 uM): 75.31%
A-Blank (Average-Blank) O.D. at 570 nm ([2]; 500 uM): 0.61 O.D.
Average O.D. reading at 570 nm ([2]; 500 uM): 0.6927 O.D.
Inhibition of pyruvate kinase compared with BrPyA [3]: inhibited pyruvate kinase at lower concentrations than BrPyA
inhibition at 0.1 µM ([3]; Concentration 0.1 μM, read-out: % Inhibition): 0%
inhibition at 1 µM ([3]; Concentration 1 μM, read-out: % Inhibition): 13.8%
inhibition at 10 µM ([3]; Concentration 10 μM, read-out: % Inhibition): 28.6%

O=C(O)C(=O)CBr [BrPyA, 3-bromopyruvic acid, reference compound]
inhibition at 100 µM ([3]; Concentration 0.1 mM): 0%
inhibition at 1000 µM ([3]; Concentration 1 mM): 0%
inhibition at 10000 µM ([3]; Concentration 10 mM): 10.9%
inhibition at 100000 µM ([3]; Concentration 100 mM): 57.8%
